From a melting point compilation (Tetko et al.; mined from patent text by program, amines drawn as free bases though some values may be those of a salt)

Compound | melting point [°C]
CCCCNC(=O)Nc1ccc(OC(=O)NCCCC)cc1C(=O)NCC1CCN(C(c2ccccc2)c2ccccc2)CC1 | 197 to 199
CCCOc1ccc(N)cc1C1=NC(=O)C2=NN=NC2=N1 | 225 to 227
CCN(CC)CCN1Cc2nc3ccccc3c(=O)n2-c2ccccc2C1=O | 117 to 119
CCCCCCCCCCCCCCCCCCOc1ccc(C(=O)C(Sc2nnnn2-c2ccccc2)c2ccc([N+](=O)[O-])cc2)cc1 (stereo unspecified) | 82 to 95
CCOC(=O)N(CC(=O)O)C(=O)c1c(F)ccc2c(C(F)(F)F)c(OC)ccc12 | 136 to 138
CC(=O)n1c(=O)sc2c(Cl)cccc21 | 74
CCn1c(=O)c(C)cc2cnc(S(C)=O)nc21 (stereo unspecified) | 148 to 150
CCOc1nn(-c2ccc(C(F)(F)F)cn2)cc1CCCCOc1ccccc1CC(=O)O | 109 to 110
CCCCc1ccc(C(=O)NCc2cccc3c2C(=O)N(C2CCC(=O)NC2=O)C3=O)nc1 (stereo unspecified) | 137 to 139
O=C(O)c1cc2cc(OCCNC[C@H](O)COc3ccccc3)ccc2s1 | 261 to 262
COc1ccc(-c2cccc(Cl)c2)cc1Cn1cncn1 | 78.2 to 78.4
O=C1N(c2cc(Cl)cc(Cl)c2)C(=O)C2(Cc3ccc(Br)cc3)CCCN12 (stereo unspecified) | 69.4
COc1nc(N)nc(OC(F)(F)F)n1 | 69 to 91
COCOCc1cc(-c2ccc(C(=O)O)cc2)cc(-c2ccc3c(c2)C(C)(C)CCC3(C)C)c1 | 88
CC(C)(C)c1cccc(S(=O)(=O)Nc2ncc(C(F)(F)F)cc2I)c1 | 135
Cc1c(F)c(F)cc(C(=O)O)c1F | 101 to 102
CC(n1cncn1)C(O)(COc1ccc(F)cc1)C(C)(C)C (stereo unspecified) | 85 to 100
CCN(CC)C(=O)Oc1nc(C)c2cc(OC)c(OC)cc2c1NC(N)=O | 215 to 216
CCc1cccc(CC(=O)O)c1OCCCc1cc(OC(C)C)nn1Cc1ccc(Cl)cc1Cl | 98 to 99
COCn1cc(-c2coc3ccc(-c4nnc(C)o4)cc23)cn1 | 128 to 129
COC(=O)C(NC(=O)c1ccccc1)C(C)=O (stereo unspecified) | 113
O=C(Nc1ccc(CN2C(=O)[C@H]3CCC[C@H]3N(C(=O)CN3C(=O)c4ccccc4C3=O)c3ccccc32)cc1)c1ccc(Br)cc1 (relative stereo) | 175 to 180

Compound | melting point [°C]
O=C(NCc1ccc(F)c(F)c1)c1ccnc(N2CCN(Cc3cccnc3)C2=O)c1 | 178 to 180
CC[Si](CC)(CC)OC1CCCc2cnc3ccc(OCc4ccccc4[N+](=O)[O-])cc3c21 (stereo unspecified) | 110 to 111
CCOC=C(C#N)C(=O)c1cc(F)c(F)c(F)c1F | 99 to 101
O=[N+]([O-])c1cc2nc(O)c(O)nc2c2scnc12 | > 360
C[C@H]1CC(=O)O[C@@H]1CO | 104 to 105
COc1ccc(C(=O)c2ccccn2)cc1CCl | 92 to 94
Cc1oc(-c2ccccc2)nc1CNC(=O)c1ccc(Cn2cc(CCC(=O)O)c(-c3ccccc3)n2)cc1 | 177 to 178
O=[N+]([O-])c1oc2cc(NS(=O)(=O)C(F)(F)F)ccc2c1-c1ccccc1 | 114 to 120
CN(C)CCNC(=O)Nc1ccccc1 | 141 to 142
O=C(Nc1ccccc1)O[C@@H]1CN=C(c2ccccc2F)O[C@H]1c1ccccc1 (racemic) | 128
CN(C)Cc1nc(C(=O)O)nn1-c1ccc(Cl)cc1C(=O)c1ccccc1Cl | 110 to 113
COc1cccc(C=CC(=O)c2c(OCC=C(C)C)ccc3c(=O)c4ccccc4oc23)c1 | 134 to 136
O=C(CCl)N(c1ccccc1)c1cccc(Cl)c1 | 94 to 96.5
COc1ccc(C(=O)n2c3c(c4ccccc42)CC(C(=O)O)(C(=O)O)CC3)cc1 | 205 to 207
NC(=O)C1(c2ccc(F)cc2)OC(=O)c2ccccc21 (stereo unspecified) | 170 to 173
CNC(=O)N(C)c1nnc(C(C)(C)CC#N)s1 | 133 to 135
Cc1ccc(C2COc3c(C)c(C)c(Br)c(C)c32)nc1 (stereo unspecified) | 105 to 106
Cc1nn(C)cc1C(=O)Nc1ccc(OCC(C)(C)C)c(C#N)c1 | 193 to 194
C#CCn1c(-c2ccccc2)nn(C(C)(C)C)c1=O | 82 to 83
COc1cnnc(O)c1 | 253 to 255
CCc1cc(-c2nc(C)c(-c3ccnc(Nc4ccc(N5CCOCC5)cc4)n3)s2)ccn1 | 214 to 215
CCCOc1ccc(OCC(O)CNCCNc2c(C)cccc2C)cc1 (stereo unspecified) | 51 to 54

Compound | melting point [°C]
CNC(=S)NCCCSc1ncco1 | 43 to 45
O=[N+]([O-])c1c(Cl)cc(Cl)cc1CO | 133 to 134
N#CCc1cccc(OCc2csc(-c3ccccc3)n2)c1 | 108 to 110
CN1CCC(O)(c2ccc(F)cc2F)C1 (stereo unspecified) | 117 to 119
CS(=O)(=O)c1ccc(-n2nc(C(F)(F)F)cc2-c2nc3ccc(F)cc3o2)cc1 | 216 to 218
CC(C)(C)NNC(=O)c1ccccc1CO | 116 to 118
CCCC(=O)c1cnc2c(F)cccc2c1Nc1ccc(O)cc1C | 205 to 207
COc1cc(C=O)ccc1OCc1nc(-c2cccc(C#N)c2)oc1C | 166 to 167
CCCc1ccc(-n2nc(Cl)cc2-c2ccc(S(C)(=O)=O)cc2)cc1N | 152 to 154
CC(C)c1ccc(S(=O)(=O)Nc2cnc(I)cc2C(F)(F)F)cc1 | 156
O=C1OCCC12Sc1cc(NO)ccc1C2=O (stereo unspecified) | 184 to 186
NC1=NC=C(c2ccc(C(F)(F)F)cc2)c2ccccc2C1 | 167 to 170
COc1ccc2c(c1)c1c3c(c(-c4ccccc4)cc1n2CCO)C(=O)NC3=O | 262 to 264
Cc1c(-c2cnccn2)sc2nc(N)[nH]c(=O)c12 | 280 to 300
CCOC(=O)Cn1c(=O)[nH]c2ccc(C(=O)c3c(-c4ccccc4)c(OC)c4ccccn34)cc2c1=O | 221
CC(C)(C)OC(=O)N[C@@H](Cc1ccccc1)[C@H](C#N)OC(=O)c1ccc(-c2ccccn2)cc1 | 140 to 141
N#Cc1ccc(-c2cc(-c3ccc(C#N)cc3Cl)no2)cc1 | 247 to 248
CNC(=O)c1cc2c(cn1)[nH]c1ccccc12 | 264 to 266
O=C1OC(CCCN2CCN(c3ncccn3)CC2)CN1c1ccccc1 (stereo unspecified) | 92 to 98
CC1COc2c(F)c(F)cc3c(=O)c(C(=O)O)cn1c23 (stereo unspecified) | > 280
Cc1cc(-c2cc(C(F)(F)F)nn2-c2ccc(S(C)(=O)=O)cc2)ccc1-c1ccco1 | 174 to 176
c1coc(-c2ccnc3[nH]c4ccccc4c23)c1 | > 220

Other lines, results leading:

melting point [°C] | Compound
218 | CC(C)(C(=O)O)c1ccc(CCN2CCC(c3nc4ccccc4n3CCO)CC2)cc1
203 to 204 | COc1cc(O)c2c(=O)c(OC)c(-c3ccc(OC4OC(CO)C(O)C(O)C4O)c(OC)c3)oc2c1 (stereo unspecified)
114 to 115 | CC(=O)C[C@@H]1c2cc(C#N)ccc2OC(C)(C)[C@H]1O (relative stereo)
131 to 132 | COc1ccc2c(c1)C(C(=O)N(Cc1ccc(S(C)(=O)=O)cc1)c1ccc(C(C)C)cc1)CCC2 (stereo unspecified)
118 to 120 | CCOC(=O)C1=C(COCc2nnc(C)o2)NC(C)=C(C(=O)OC)C1c1cccc(Cl)c1Cl (stereo unspecified)
43.3 to 45.8 | C[C@H]1CCCC(C)(C)[C@@H]1[C@H](O)c1ccc(F)c(F)c1
83 to 84 | CSCC(=O)[C@H](CC1CCCCC1)NC(=O)[C@H](CC(C)C)NC(=O)OCc1ccccc1
> 280 | COc1cc(Nc2nc3cccc(-c4ccc(C(N)=O)cc4)c3o2)cc(OC)c1OC
169 to 171 | COCCCCCCCCCCCC(=O)Nc1cccc(C(=O)O)c1
78 to 79 | COc1ccc(N2CCN(CCC3OCCc4ccc(Br)cc43)CC2)cc1 (stereo unspecified)
147 to 150 | CN1CCCC1CC(O)c1cccc(O)c1 (stereo unspecified)
127 to 128 | COC1CC(C(C)CCCC(C)C)C2(C)CCC3C(=C12)CCC1CC(O)CCC13C (stereo unspecified)
105 to 106 | COc1cc(Nc2c(C#N)cnc3cc(/C=C/CN4CCOCC4)c(OC)cc23)c(Cl)cc1Cl
177 to 179 | CCC1(CC)CN(C2CC3(C)C(CCC4C5CCC(C(C)=O)C5(C)CC(=O)C43)CC2O)CCO1 (stereo unspecified)
95 | O=C(Nc1ccc(C2CN(C(=O)OCc3ccccc3)C2)c(F)c1)OCc1ccccc1
201 to 202 | CC(CCCC(O)(C(F)(F)F)C(F)(F)F)C1CCC2C3CC=C4CC(O)CC(O)C4(C)C3CCC12C (stereo unspecified)
98 to 99 | CCOC(=O)CCCOc1ccc(C(N)=O)c(OCC2CCCCC2)c1
86 to 90 | CCCCN1CCC(CNC(=O)c2ccc(N)n3c(Cl)c(CC)nc23)CC1
108 to 109 | CCCCOc1cc(C2(C)CNC(=O)O2)ccc1OC (stereo unspecified)
103 to 104 | CCOC(=O)COc1cc2c(c(Cl)c1Cl)C(=O)C(CC#C[Si](C)(C)C)(c1ccc(Cl)cc1)C2 (stereo unspecified)
170 to 171 | CC(=NO)C(C)(C)NCC(Cn1ccnc1[N+](=O)[O-])ONC(C)(C)C(C)=NO (stereo unspecified)
110 to 118 | CCCCN(CCC12CC3CC(CC(C3)C1)C2)C(=O)NCCCc1ccncc1
116 to 118 | N#CC1(CCc2ccccc2)CCCCCN1C(=O)c1ccccc1 (stereo unspecified)
155 to 161 | CC(=O)OCC(C)C1CCC2C3CC=C4CC(OC5CCCCO5)CC(OC5CCCCO5)C4(C)C3CCC12C (stereo unspecified)
241 to 242 | CS(=O)(=O)CCNC(=O)c1ccc(-c2ccc3cnc(Nc4ccc(N5CCOCC5)cc4)nn23)cc1
111 to 112 | CN(C)CCn1c(=O)c2ccc([N+](=O)[O-])cc2c2cnc3cc4c(cc3c21)OCO4
149 to 151 | CCN(C(=O)Nc1ccccc1CCc1cc(C(C)(C)C)c(O)c(C(C)(C)C)c1)C1CCN(Cc2ccccc2)CC1
192 to 193 | CCc1ccc(Cc2cn(C3OC(COC(=O)c4ccccc4)C(O)C(OC(=O)c4ccccc4)C3OC(=O)c3ccccc3)c3cccc(Cl)c23)cc1 (stereo unspecified)
137 | Cc1cccc(C(N)c2ccc3nc(NC4CCN(CCO)CC4)n(Cc4nc(C)ccc4O)c3c2)c1 (stereo unspecified)
127 to 132 | CC(C)(C)Nc1cc(N2CCCNCC2)nc(NC(C)(C)C)n1
